A short description of this test: Inhibition of FTase.
Usually IC50 stands for the point on the concentration scale where inhibition reaches its midpoint. A low value points to higher potency. Consider `CCOc1cccc(-c2cc(C#N)ccc2COCc2cncn2Cc2ccc(C#N)cc2)c1`, for which the IC50 was 0.27 nM.

For the molecule `CCOc1cccc(-c2cc(C#N)ccc2C#CC(O)(c2ccc(C#N)cc2)c2cncn2C)c1` (configuration not stated), half-maximal inhibition (IC50) required 0.73 nM.

`N#Cc1ccc(Cn2cncc2Cn2ccc3cc(-c4cccc5ccccc45)c(C#N)cc32)cc1` gave an IC50 of 0.15 nM.

Take `O=C(Nc1nncs1)C1CN(C2c3ccc(Cl)cc3CCc3cc(Br)cnc32)CCN1C(=O)NC1CCCCC1` (configuration not stated): the IC50 stood at 490 nM. With `N#Cc1ccc(Cn2cncc2COCc2ccc(C#N)cc2-c2cccc(OC(F)(F)F)c2)cc1`, the IC50 was determined as 0.49 nM. Molecule `Cn1cncc1C(OCc1ccc(C#N)cc1NS(=O)(=O)c1cccs1)c1ccc(C#N)cc1` (configuration not stated) showed a 50% inhibitory concentration (IC50) of 0.88 nM.

The molecule `CS(=O)(=O)Cn1cncc1COCc1ccc(C#N)cc1-c1cccc(Cl)c1` displayed an IC50 of 96 nM. Regarding `Cn1c(=O)cc(-c2cccc(Cl)c2)c2cc(Cn3cncc3Cn3ccc(C(=O)N4CCOCC4)c3)ccc21`, it took 1000 nM to reach half-maximal inhibition (IC50). As to `Cn1cncc1C(OCc1ccc(C#N)cc1-c1ccc2c(c1)OC(F)(F)O2)c1ccc(C#N)cc1` (configuration not stated), the IC50 turned out to be 1.1 nM. In the case of `CCCCC(=O)N1CCN(C2c3ccc(Cl)cc3CCc3cc(Br)ccc32)CC1C(=O)NCc1ccc[n+]([O-])c1` (configuration not stated) it was 1800 nM. In the case of `Cc1ccccc1-c1cc(C(OCc2cccc(C(F)(F)F)c2)c2cncn2C)ccc1C#N` (configuration not stated) it was 29 nM; in that of `C[n+]1cccc(NC(=O)C2CN(C3c4ccc(Cl)cc4CCc4cc(Br)cnc43)CCN2C(=O)NC2CC2)c1` (configuration not stated), 51 nM.

Molecule `N#Cc1ccc(OCc2cn(Cc3ccc(C#N)c(-c4ccc5ccccc5c4)c3)cn2)cc1` had an IC50 of 0.32 nM. As for `CCOc1cccc(-n2c(=O)n(C)c3ccc(C(O)(c4ccc(C#N)cc4)c4cncn4C)cc32)c1` (configuration not stated), 0.5 nM corresponded to half-maximal inhibition (IC50). `Cn1cncc1C(OCc1ccc(C#N)cc1)c1ccc(C#N)c(-c2cc3ccccc3s2)c1` (configuration not stated) came in with an IC50 of 160 nM. In turn, `CCOc1cccc(-c2cc(C#N)ccc2CNCc2cncn2Cc2ccc(C#N)cc2)c1` registered an IC50 of 0.014 nM. Turning to `N#Cc1ccc(COCc2cncn2Cc2ccc(C#N)cc2-c2cccc3ccccc23)cc1`, the IC50 was found to be 0.96 nM.

As for `Cc1ccc(CNC(=O)C2CN(C3c4ccc(Cl)cc4CCc4cc(Br)cnc43)CCN2C(=O)NC2CCCCC2)cn1` (configuration not stated), the IC50 is 61 nM. For `Cn1cncc1C(O)(c1ccc(Cl)cc1)c1ccc2c(c1)n(Cc1cccc(Cl)c1)c(=O)n2C` (configuration not stated), half-maximal inhibition (IC50) required 150 nM.

The molecule `Cn1cncc1C(O)(c1ccc(C#N)cc1)c1ccc2c(c1)n(-c1cccc(Cl)c1)c(=O)n2C` (configuration not stated) came in with an IC50 of 1.4 nM.

`COCc1cccc(-c2cc(C#N)ccc2COC(c2ccc(C#N)cc2)c2cncn2C)c1` (configuration not stated): the IC50 was found to be 0.19 nM. `COc1cccc(-c2cc(N)ccc2COC(c2ccc(C#N)cc2)c2cncn2C)c1` (configuration not stated): inhibition was half-maximal at 40 nM (IC50).

The record behind these values is ChEMBL document CHEMBL1140607, “Pharmacophore mapping of diverse classes of farnesyltransferase inhibitors” (Bioorg Med Chem Lett, 2007).
